Assay results reported in patent US6407076B1, “Adenosine analogues and related method of treatment” (SmithKline Beecham Corporation, priority 1997, dated 2002).

Experiments:
[1] = biological target: T1, human adenosine A3 receptor (Homo sapiens, UniProt P0DMS8); assay: Reporter gene (CRE/SPAP) agonist assay in CHO cells, adenosine A3 receptor; conditions: CHO cells with human A3 receptor; inhibition of forskolin-stimulated SPAP production; potency relative to NECA=1
T1 sequence (P0DMS8 1-318): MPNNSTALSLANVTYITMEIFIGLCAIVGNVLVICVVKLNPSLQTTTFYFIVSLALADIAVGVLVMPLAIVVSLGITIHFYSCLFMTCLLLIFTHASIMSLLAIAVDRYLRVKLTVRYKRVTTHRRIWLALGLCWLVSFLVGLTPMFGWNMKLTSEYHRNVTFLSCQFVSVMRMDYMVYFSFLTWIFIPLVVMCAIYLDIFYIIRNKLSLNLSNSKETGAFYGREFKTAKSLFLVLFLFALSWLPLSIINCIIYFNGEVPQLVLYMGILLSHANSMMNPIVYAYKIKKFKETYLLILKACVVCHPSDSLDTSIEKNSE

[2] = biological target: T2, human adenosine A1 receptor (Homo sapiens, UniProt P30542); assay: Reporter gene (CRE/SPAP) agonist assay in CHO cells, adenosine A1 receptor; format: cell-based; conditions: CHO cells with human A1 receptor; inhibition of forskolin-stimulated SPAP production; potency relative to NECA=1
T2 construct: expressed in transfected cells; host or cells: Chinese hamster ovary (CHO) cells containing CRE/SPAP/HYG reporter elements
T2 sequence (P30542 1-326): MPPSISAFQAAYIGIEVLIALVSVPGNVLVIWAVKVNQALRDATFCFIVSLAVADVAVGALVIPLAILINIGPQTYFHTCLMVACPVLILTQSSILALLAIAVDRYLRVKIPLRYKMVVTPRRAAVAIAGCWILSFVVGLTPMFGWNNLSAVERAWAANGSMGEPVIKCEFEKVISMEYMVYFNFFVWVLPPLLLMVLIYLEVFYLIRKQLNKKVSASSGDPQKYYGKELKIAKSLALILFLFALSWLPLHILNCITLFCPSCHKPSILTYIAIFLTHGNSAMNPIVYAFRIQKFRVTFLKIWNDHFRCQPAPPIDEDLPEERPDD
Protocol: Agonist activity was measured in Chinese hamster ovary (CHO) cells containing the CRE/SPAP/HYG (CRE=cyclic AMP response element; HYG=hygromycin resistance; SPAP=secreted placental alkaline phosphatase) reporter gene elements, which upon stimulation of cAMP levels produced SPAP. A cell line was used, which was stably transfected with either the human adenosine A1 receptor or the human adenosine A3 receptor in addition to the above elements. Cells were plated out in 96-well plates in culture medium and incubated at 37° C. for 1 hour. […] All cells were then incubated for a further 5 hours at 37° C., and cooled to room temperature, after which a substrate for the phosphatase (para-nitrophenol phosphate, pNPP), which is converted by SPAP to a coloured reagent) was then added and the 96-well plates were read in a plate reader. From these readings, the concentration-dependence of the inhibition by the agonist for forskolin-stimulated SPAP production can be calculated.
(ECR=equipotent concentration ratio relative to NECA=1)

Structure (SMILES) | A3 ECR (equipotent concentration ratio relative to NECA=1) [1] | A1 ECR (equipotent concentration ratio relative to NECA=1) [2] | melting point
OCC(O)CNc1ncnc2c1ncn2[C@@H]1O[C@H](COC(F)(F)F)[C@@H](O)[C@H]1O (relative stereo) [Example 20, N-(rel-2,3-Dihydroxy-propyl)-5′-O-trifiuoromethyl-adenosine] | 284.5 | 24.10 | –
O[C@@H]1[C@H](O)[C@@H](COC(F)(F)F)O[C@H]1n1cnc2c(NC3CCOCC3)ncnc21 [Example 1, N-(Tetrahydro-pyran-4-yl)-5′-O-trifluoromethyladenosine] | >129 | 8.40 | –
O[C@@H]1[C@H](O)[C@@H](COC(F)(F)F)O[C@H]1n1cnc2c(NCCc3ccncc3)ncnc21 [Example 2, N-(2-Pyridin-4-yl-ethyl)-5′-O-trifluoromethyladenosine] | – | 185.5 | –
O[C@@H]1[C@H](O)[C@@H](COC(F)(F)F)O[C@H]1n1cnc2c(NC3CC4CCC3C4)ncnc21 (stereo partly drawn) [Example 3, N-(exo-Bicyclo[2.2.1]hept-2-yl)-5′-O-trifluoromethyl-adenosine] | 143.5 | – | –
Nc1ncnc2c1ncn2[C@@H]1O[C@H](COC(F)(F)F)[C@@H](O)[C@H]1O [Example 4, 5′-O-Trifluoromethyladenosine] | 81.6 | 80.7 | –
CNS(=O)(=O)CCNc1ncnc2c1ncn2[C@@H]1O[C@H](COC(F)(F)F)[C@@H](O)[C@H]1O [Example 5, 2-[9-(3R,4S-Dihydroxy-5R-trifluoromethoxymethyl-tetrahydro-furan-2R-yl)-9H-purin-6-ylamino]-ethanesulfonic Acid Methylamide] | >212 | 33.2 | –
O[C@@H]1[C@H](O)[C@@H](COCC(F)(F)F)O[C@H]1n1cnc2c(NC3CCCC3)ncnc21 [Example 6, N-Cyclopentyl-5′-O-(2,2,2-trifluoro-ethyl)-adenosine] | 7.7 | 8.70 | 74 to 76 °C
O[C@@H]1[C@H](O)[C@@H](COCC(F)(F)F)O[C@H]1n1cnc2c(N[C@@H]3CCC[C@H]3O)ncnc21 [Example 8, N-(2R-Hydroxy-cyclopent-(R)-yl)-5′-O-(2,2,2-trifluoro-ethyl)-adenosine] | – | 239.40 | –
O[C@@H]1[C@H](O)[C@@H](COCC(F)(F)F)O[C@H]1n1cnc2c(Nc3ccc(F)cc3)ncnc21 [Example 9, N-(4-Fluoro-phenyl)-5′-O-(2,2,2-trifluoro-ethyl)-adenosine] | 19.7 | 298 | –
O[C@@H]1[C@H](O)[C@@H](COC(F)(F)F)O[C@H]1n1cnc2c(N[C@H]3CCC[C@@H]3F)ncnc21 [Example 12, N-(2S-Fluoro-cyclopent-(S)-yl)-5′-O-trifluoromethyl-adenosine] | >226 | – | –
O[C@@H]1[C@H](O)[C@@H](COC(F)(F)F)O[C@H]1n1cnc2c(NC3CCSCC3)ncnc21 [Example 13, N-(Tetrahydro-thiopyran-4-yl)-5′-O-trifluoromethyl-adenosine] | >276 | 11.1 | –
O[C@@H]1[C@H](O)[C@@H](COC(F)(F)F)O[C@H]1n1cnc2c(Nc3ccc(F)c(F)c3)ncnc21 [Example 14, N-(3,4-Difluoro-phenyl)-5′-O-trifluoromethyl-adenosine] | 197.3 | 20.50 | –
O[C@@H]1[C@H](O)[C@@H](COC(F)(F)F)O[C@H]1n1cnc2c(Nc3cccc(F)c3)ncnc21 [Example 15, N-(3-Fluoro-phenyl)-5′-O-trifluoromethyl-adenosine] | – | 23.2 | –
O=S1(=O)CCC(Nc2ncnc3c2ncn3[C@@H]2O[C@H](COC(F)(F)F)[C@@H](O)[C@H]2O)CC1 [Example 16, N-(1,1-Dioxo-hexahydro-1δ6-thiopyran-4-yl)-5′-O-trifluoromethyl-adenosine] | >207 | 79.50 | –
CC(C)(C)Nc1ncnc2c1ncn2[C@@H]1O[C@H](COC(F)(F)F)[C@@H](O)[C@H]1O [Example 17, N-tert-Butyl-5′-O-trifiuoromethyl-adenosine] | >207 | – | –
CCOC(=O)N1CCC(Nc2ncnc3c2ncn3[C@@H]2O[C@H](COC(F)(F)F)[C@@H](O)[C@H]2O)CC1 [Example 18, 4-[9-(3R,4S-Dihydroxy-5R-trifluoromethoxymethyl-tetrahydro-furan-2R-yl)-9H-purin-6-ylamino]-piperidine-1-carboxylic Acid Ethyl Ester] | >202 | 5.32 | –
O[C@@H]1[C@H](O)[C@@H](COC(F)(F)F)O[C@H]1n1cnc2c(N[C@H]3CCC[C@@H]3O)ncnc21 [Example 19, N-(2S-Hydroxy-cyclopent-(S)-yl)-5′-O-trifluoromethyl-adenosine] | >150 | – | –
O[C@@H]1[C@H](O)[C@@H](COC(F)(F)F)O[C@H]1n1cnc2c(N[C@@H]3CCOC3)ncnc21 [Example 21, N-(Tetrahydro-furan-3R-yl)-5′-O-trifluoromethyl-adenosine] | >175 | – | –
O[C@@H]1[C@H](O)[C@@H](COC(F)(F)F)O[C@H]1n1cnc2c(N[C@H]3CCOC3)ncnc21 [Example 22, N-(Tetrahydro-furan-3S-yl)-5′-O-trifluoromethyl-adenosine] | >63 | – | –
CC(=O)NCCNc1ncnc2c1ncn2[C@@H]1O[C@H](COC(F)(F)F)[C@@H](O)[C@H]1O [Example 23, N-{2-[9-(3R,4S-Dihydroxy-5R-trifluoromethoxymethyl-tetrahydro-furan-2R-yl)-9H-purin-6-ylamino]-ethyl}-acetamide] | >175 | 12.52 | –
CCOC(=O)N1CCC(Nc2nc(C)nc3c2ncn3[C@@H]2O[C@H](COC(F)(F)F)[C@@H](O)[C@H]2O)CC1 [Example 24, 4-[9-(3R,4S-Dihydroxy-5R-trifluoromethoxymethyl-tetrahydro-furan-2R-yl)-2-methyl-9H-purin-6-ylamino]-piperidine-1-carboxylic Acid Ethyl Ester] | >134 | 51.70 | –
Cc1nc(NC2CCOCC2)c2ncn([C@@H]3O[C@H](COC(F)(F)F)[C@@H](O)[C@H]3O)c2n1 [Example 25, 2-Methyl N-(tetrahydro-pyran-4-yl)-5′-O-trifluoromethyl-adenosine] | – | 32 | –
